These results are taken from US10233184B2, “7-substituted sulfonimidoylpurinone compounds and derivatives for the treatment and prophylaxis of virus infection” (Hoffmann-La Roche Inc., priority 2016, dated 2019).

In brackets after ≈: the same amount, converted by molar mass. Where two headings read alike, the source gives them in different places. Bounds are passed on as bounds.

Data set [1] is described as follows: Portal vein study: oral PK in PVC/CAC dual cannulated rat. In kind it is in vivo. Conditions: prodrug 10 mg/kg oral, analyte prodrug. The method, then:
Surgery was performed under pentobarbital/isoflurane anesthesia. Briefly, after disinfecting the abdominal area with betadine and 70% isopropyl alcohol, a small abdominal mid-line incision was made. The cecum was pulled out and mesenteric vein was identified and isolated for about 5 mm vessel. A loose ligature was placed proximally and distal end of the vein was ligated. Make a small incision (just enough to allow the insertion of the catheter) on isolated vein and insert the PU catheter towards liver for appropriate length. The catheter was secured in place by tying the loose ligature around the cannulated vessel. The cecum was replaced into abdominal cavity. A hole was made in the right abdominal wall to make the end of catheter pass freely. The catheter was secured by suture on the abdominal wall. The abdominal muscle incision was closed with suture. A small incision was made in the scapular area to serve as the exit site of the catheter. The catheter was subcutaneously tunneled and exteriorized through the scapular incision. A fixed suture was placed in the scapular region. The patency of the catheter was checked and then exteriorized from the subcutaneous space to the dorsal neck region. After gently wiping the area, the abdominal cavity was sutured. The left carotid artery was then cannulated by inserting a PESO catheter. Both the exteriorized catheters were tied firmly on the dorsal neck region and fixed. The animals was then allowed to recover in its cage and used for study at least 3 days after surgery. All catheters were flushed once daily with heparinized saline to maintain patency. Animals were fasted overnight (n=3) and administered vial oral gavage (10 mg/kg, 10 mL/kg). Blood samples (60 μL) were collected simultaneously from the portal and carotid artery catheters at 0.083, 0.25, 0.5, 1, 2, 4, 7, 24 h. All blood samples will be transferred into microcentrifuge tubes containing 2 μL of K2EDTA (0.5M) as anti-coagulant and placed on wet ice. Then blood samples will be processed for plasma by centrifugation at approximately 4° C., 3000 g within half an hour of collection. Plasma samples will be stored in polypropylene tubes, quick frozen over dry ice and kept at −70±10° C. until LC/MS/MS analysis. Pharmacokinetic parameters (mean±SD, n=3) of prodrugs and active forms in portal and carotid samples following oral administration of prodrugs (10 mg/kg) in portal vein cannulated rat were detected and analyzed.

A further data set has as its system HBV. Nature of the data set: In vivo antiviral efficacy in AAV-HBV mouse model. Set-up: species or system C57BL/6 mice. Particulars: for reduction in HBV DNA / reduction in HBsAg: serum. An excerpt:
4-6 week old male C57BL/6 mice, specific pathogen free, were purchased from Shanghai Laboratory Animal Center of Chinese Academy of Sciences (SLAC) and housed in an animal care facility in individually ventilated cages under controlled temperature and light conditions following the Institutional Animal Care guidelines. AAV-HBV virus was purchased from Beijing FivePlus Molecular Medicine Institute (Beijing, China). The recombinant virus carries 1.3 copies of the HBV genome packaged into AAV serotype 8 (AAV8) capsids. C57BL/6 mice were injected with 200 μL of the recombinant virus diluted in saline buffer through tail vein. On day 14, the mice were bled to measure HBV surface antigen (HBsAg) and HBV genomic DNA in the serum, and animals were then randomized into groups according to these HBV biomarkers.
Serum HBsAg and HBeAg were measured using CLIA kits (Autobio Diagnostics Co., Ltd., Zhengzhou, China) according to the manufacturer's instructions. The lower limit of detection for HBsAg was 0.05 IU/mL. Serum dilution of 500-fold was used to obtain values within the linear range of the standard curve.
Serum HBV DNA was extracted using a MagNA Pure 96 DNA and Viral NA Small Volume Kit (Roche) following the manufacturer's instructions. The DNA samples were analyzed by real-time quantitative PCR (qPCR) using a HBV-specific primer and probe set for specific amplification and detection of a 128 bp HBV genome region from the nucleotide 2969 to 3096. The sequences of the primers and probe are: […]
Anti-HBs in the serum was tested using Anti-HBs CLIA kits (Autobio Diagnostics Co., Ltd., Zhengzhou, China) and mouse anti-IgG conjugated with Biotin (0.5 mg/mL) from a Mabtech B Elispot kit. The anti-IgG Biotin was diluted in PBS with a final concentration of 1 μg/mL. 25 μL of mouse anti-IgG were mixed with serum samples in wells of the plate in the Anti-HBs CLIA kit for 1-hour incubation. Then wash the plate and add Streptavidin-HRP for 1-hour incubation at room temperature. After repeating the washing step, mix substrate A and B from the CLIA kit and add 50 μL of the mixture in each well. After 5-min incubation at room temperature, the plate was read on an Envision Plate Reader (PerkinElmer) to measure luminecence.
The mouse model with high level expression of both HBV DNA and HBsAg was generated by injecting C57BL/6 mice with a recombinant adeno-associated virus (AAV) carrying a replicable HBV genome (AAV-HBV). With long-lasting HBV viremia and fully competent immune system, the AAV-HBV mouse model was utilized to evaluate the antiviral efficacy of the TLR7 agonists following the study design as shown in Table 3.
Specifically, groups 2 and 3 were orally dosed with Example 43-A at 10 mg/kg every other day (QOD) and once weekly (QW), respectively, and the control group 1 received only Vehicle. At the dosing volume of 10 mL/kg, Example 43-A (1 mg/mL) was formulated as an inclusion complex with 2% Klucel LF, 0.5% TPGS, 0.09% Methylparabens, 0.01% Propylparabens in water. The animals were treated for a total of 42 days, and were submandibularly bled twice per week for serum collection throughout the study. The serum samples were subjected to analysis of HBV biomarkers.
The antiviral efficacy of Example 41-A was evaluated in the same AAV-HBV model following the study design in Table 4 with the same methods to measure HBV biomarkers as described in Example 51.
Specifically, groups 2, 3 and 4 were orally dosed with Example 41-A at 1, 3 and 10 mg/kg QOD respectively. Group 5 was treated with 10 mg/kg QW, while group 1 with only Vehicle. At the dosing volume of 10 mL/kg, Example 41-A (0.1, 0.3, and 1 mg/mL) was formulated as an inclusion complex with 2% Klucel LF, 0.5% TPGS, 0.09% Methylparabens, 0.01% Propylparabens in water. The animals were treated for a total of 42 days, and were submandibularly bled twice per week for serum collection throughout the study. The serum samples were subjected to analysis of HBV biomarkers. […]

A short description of another data set: LYSA solubility study. Format: physicochemical. Particulars: phosphate buffer, pH 6.5, aqueous buffer, thermodynamic from solid, 0.05M phosphate buffer pH 6.5, read-out: LYSA of Prodrugs. Put shortly:
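Samples from 10 mM DMSO stock were dried, redissolved in 0.05M phosphate buffer pH 6.5, stirred 1 h, shaken 2 h, left overnight and filtered. Filtrate and 1/10 dilution quantified by HPLC-UV; solubility in μg/mL, reported as greater-than when >80% of the maximum sample amount was in solution.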

Setting [2] is: carotid artery plasma, read-out: AUC0-2 (nM · h), prodrug, Carotid sampling.
[3] abbreviates: carotid artery plasma, read-out: Cmax (nM), prodrug, Carotid sampling.
[4] abbreviates: carotid artery plasma, read-out: Tmax (h), prodrug, Carotid sampling.
Where [5] appears, read: portal vein plasma, read-out: AUC0-2 (nM · h), prodrug, Portal sampling.
The mark [6] stands for this setting: portal vein plasma, read-out: Cmax (nM), prodrug, Portal sampling.
Where [7] appears, read: portal vein plasma, read-out: Tmax (h), prodrug, Portal sampling.
[8] abbreviates: AAV-HBV mice, 1, 3, 10 mg/kg PO QOD (all three doses).
Where [9] appears, read: AAV-HBV mice, 1, 3, 10 mg/kg PO QOD, 42 days.
Setting [10] is: AAV-HBV mice, 1, 3, 10 mg/kg PO QOD, 42 days, all treated groups.
Where [11] appears, read: AAV-HBV mice, 10 mg/kg PO QOD, 42 days.
Setting [12] is: AAV-HBV mice, 10 mg/kg PO QW, 42 days.

One may read the Cmax as the peak of the concentration-time curve. One may read the Tmax as the time from dosing to the highest level. Consider `CCN(C)C(=O)n1c(=O)n(Cc2ccc(Cl)cc2)c2nc([S@@](=N)(=O)CC)nc(N)c21` [Example 42-A, 6-Amino-9-[(4-chlorophenyl)methyl]-N-ethyl-2[S(S)-ethylsulfonimidoyl]-N-methyl-8-oxo-purine-7-carboxamide], for which the values for the AUC(0-t) in data set [1] (setting [2]) and in data set [1] (setting [5]) were 0.286 µM·h and 3.46 µM·h, respectively. Further, the Cmax in data set [1] (setting [3]) came to 286 nM; in data set [1] (setting [6]), 8920 nM. In addition, the Tmax was 0.22 h in data set [1] (setting [4]) and 0.19 h in data set [1] (setting [7]). In the data set with HBV (setting [8]), the “levels of HBV DNA and HBsAg at the end of the 42-day treatment” value (“levels … of the 42-day treatment” for short) is “below or close to the LLOQ”. In addition, the “effect on HBV DNA and HBsAg” value in the data set on HBV (setting [9]) is “all effective to reduce HBV DNA and HBsAg”. Further, the anti-HBsAg antibody level entry in the data set on HBV (setting [10]) was “significantly higher levels of anti-HBsAg antibody”. Moreover, in “LYSA solubility study”, the solubility thermodynamic was 225 µg/mL (≈ 498 µM).

Take `CCCN(C)C(=O)n1c(=O)n(Cc2ccc(C)cc2)c2nc([S@](=N)(=O)CC)nc(N)c21` [Example 43-A, 6-Amino-2-[S(R)-ethylsulfonimidoyl]-N-methyl-8-oxo-N-propyl-9-(p-tolylmethyl)purine-7-carboxamide]: the AUC(0-t) in data set [1] (setting [2]) worked out at 0.124 µM·h; in data set [1] (setting [5]) it was 2.07 µM·h. Also, the Cmax in data set [1] (setting [3]) was 191 nM; in data set [1] (setting [6]), 4110 nM. The figures for the Tmax in data set [1] (setting [4]) and in data set [1] (setting [7]) were 0.22 h and 0.28 h, respectively. The “levels … of the 42-day treatment” value in the data set with HBV (AAV-HBV mice, 10 mg/kg PO QOD) is “undetectable and below the lower limit of quantification (LLOQ)”. Besides, the figures for the “reduction in HBV DNA” value in the data set on HBV (setting [11]) and in the data set with HBV (setting [12]) were > 3 log and > 2 log, respectively. Moreover, the “reduction in HBsAg” value in the data set on HBV (setting [11]) and in the data set with HBV (setting [12]) was > 2.8 log each time. Also, the anti-HBsAg antibody level entry in the data set on HBV (AAV-HBV mice, 10 mg/kg PO, regardless of QOD and QW, 42 days) is on record as “induced a considerable level of anti-HBsAg antibody”. Moreover, the solubility thermodynamic in “LYSA solubility study” came out at 203 µg/mL (≈ 456 µM).

Turning to `CCCN(C)C(=O)n1c(=O)n(Cc2ccc(Cl)cc2)c2nc([S@@](=N)(=O)CC)nc(N)c21` [Example 41-B, 6-Amino-9-[(4-chlorophenyl)methyl]-2-[S(S)-ethylsulfonimidoyl]-N-methyl-8-oxo-N-propyl-purine-7-carboxamide], the AUC(0-t) in data set [1] (setting [2]) amounted to 0.0225 µM·h; in data set [1] (setting [5]), 1.44 µM·h. Further, the Cmax in data set [1] (setting [3]) amounted to 29.6 nM; in data set [1] (setting [6]), 7070 nM. The time to peak (Tmax) was found to be 0.25 h in data set [1] (setting [4]) and 0.19 h in data set [1] (setting [7]). For the same compound, the “levels … of the 42-day treatment” value in the data set on HBV (setting [8]) is “below the LLOQ”. Also, the “effect on HBV DNA and HBsAg” value with HBV (setting [9]) is “all effective to reduce HBV DNA and HBsAg”. The anti-HBsAg antibody level entry in the data set with HBV (setting [10]) is recorded as “high levels of anti-HBsAg antibody than the Vehicle group”. In addition, the solubility thermodynamic in the data set “LYSA solubility study” is 250 µg/mL (≈ 537 µM).

With `CCCN(C)C(=O)n1c(=O)n(Cc2ccc(Cl)cc2)c2nc([S@](=N)(=O)CC)nc(N)c21` [Example 41-A, 6-Amino-9-[(4-chlorophenyl)methyl]-2-[S(R)-ethylsulfonimidoyl]-N-methyl-8-oxo-N-propyl-purine-7-carboxamide], the AUC(0-t) worked out at 0.114 µM·h in data set [1] (setting [2]) and 2.19 µM·h in data set [1] (setting [5]). Moreover, the Cmax in data set [1] (setting [3]) was 210 nM; in data set [1] (setting [6]) it was 9700 nM. The Tmax is 0.19 h in data set [1] (setting [4]) and 0.14 h in data set [1] (setting [7]). The “levels of HBV DNA and HBsAg at the treatment end” value with HBV (setting [12]) is given as “undetectable levels”. Besides, the “levels … of the 42-day treatment” value in the data set with HBV (setting [8]) is recorded as “below or close to the LLOQ”. Further, the anti-HBsAg antibody level entry in the data set on HBV (AAV-HBV mice, 1, 3, 10 mg/kg PO QOD and 10 mg/kg QW, post treatment, versus Vehicle) is listed as “significantly higher levels of antibody against-HbsAg than Vehicle”. Moreover, in the data set on HBV (setting [9]), the “effect on HBV DNA and HBsAg” value is “dose-dependently reduced HBV DNA and HBsAg”. Besides, the solubility thermodynamic in “LYSA solubility study” stood at 260 µg/mL (≈ 558 µM).
